# Laboratory results from patent publication US12077503B2, “Substituted cyclic amides and their use as herbicides” (FMC CORPORATION, priority 2015, dated 2024).
# Key:
# Assay type in all cases: in vivo
# [1] = tested on: blackgrass (Alopecurus myosuroides); assay: Test A postemergence
# Excerpt: (§1) Seeds of plant species selected from barnyardgrass (Echinochloa crus-galli), Kochia (Kochia scoparia), ragweed (common ragweed, Ambrosia elatior), ryegrass, Italian (Italian ryegrass, Lolium multiflorum), crabgrass, large (Digitaria sanguinalis), giant foxtail (Setaria faberii), green foxtail (Setaria viridis), morningglory (Ipomoea spp.), pigweed (Amaranthus retroflexus), velvetleaf (Abutilon theophrasti), wheat (Triticum aestivum), and corn (Zea mays) were planted into a blend of loam soil and sand and treated preemergence with a directed soil spray using test chemicals formulated in anon-phytotoxic solvent mixture which included a surfactant.
# (§2) At the same time, plants selected from these crop and weed species and also blackgrass (Alopecurus myosuroides), and Galium (catchweed bedstraw, Galium aparine) were planted in pots containing the same blend of loam soil and sand and treated with postemergence applications of test chemicals formulated in the same manner. Plants ranged in height from 2 to 10 cm and were in the one- to two-leaf stage for the postemergence treatment. Treated plants and untreated controls were maintained in a greenhouse for approximately 10 d, after which time all treated plants were compared to untreated controls and visually evaluated for injury. Plant response ratings, summarized in Table A, are based on a 0 to 100 scale where 0 is no effect and 100 is complete control. A dash (-) response means no test result.
# [2] = tested on: barnyardgrass (Echinochloa crus-galli); assay: Test A postemergence
# Excerpt: as §1, §2
# Kochia (Kochia scoparia) [3] = assay: Test A postemergence
# Excerpt: as §1, §2
# [4] = tested on: giant foxtail (Setaria faberii); assay: Test A postemergence
# Excerpt: as §1, §2
# [5] = tested on: ragweed (common ragweed, Ambrosia elatior); assay: Test A postemergence
# Excerpt: as §1, §2
# [6] = tested on: wheat (Triticum aestivum); assay: Test A postemergence
# Excerpt: as §1, §2
# corn (Zea mays) = assay: Test A postemergence
# Excerpt: as §1, §2
# [7] = tested on: ryegrass, Italian (Italian ryegrass, Lolium multiflorum); assay: Test A postemergence
# Excerpt: as §1, §2
# [8] = tested on: pigweed (Amaranthus retroflexus); assay: Test A postemergence
# Excerpt: as §1, §2
# [9] = tested on: Galium (catchweed bedstraw, Galium aparine); assay: Test A postemergence
# Excerpt: as §1, §2
# [10] = tested on: barnyardgrass (Echinochloa crus-galli); assay: Test A preemergence; conditions: for Plant response rating, Barnyardgrass: 125 g ai/ha; for Barnyardgrass plant response rating (0 to 100 scale, 0 is no effect, 100 is complete control): 500 g ai/ha, visual injury approx. 10 d
# Excerpt: as §1, §2
# Kochia (Kochia scoparia) [11] = assay: Test A preemergence; conditions: for Plant response rating, Kochia: 125 g ai/ha; for Kochia plant response rating (0 to 100 scale, 0 is no effect, 100 is complete control): 500 g ai/ha, visual injury approx. 10 d
# Excerpt: as §1, §2
# [12] = tested on: giant foxtail (Setaria faberii); assay: Test A preemergence; conditions: for Plant response rating, Foxtail, Giant: 125 g ai/ha; for Foxtail, Giant plant response rating (0 to 100 scale, 0 is no effect, 100 is complete control): 500 g ai/ha, visual injury approx. 10 d
# Excerpt: as §1, §2
# [13] = tested on: ragweed (common ragweed, Ambrosia elatior); assay: Test A preemergence; conditions: for Plant response rating, Ragweed: 125 g ai/ha; for Ragweed plant response rating (0 to 100 scale, 0 is no effect, 100 is complete control): 500 g ai/ha, visual injury approx. 10 d
# Excerpt: as §1, §2
# [14] = tested on: ryegrass, Italian (Italian ryegrass, Lolium multiflorum); assay: Test A preemergence; conditions: for Plant response rating, Ryegrass, Italian: 125 g ai/ha; for Ryegrass, Italian plant response rating (0 to 100 scale, 0 is no effect, 100 is complete control): 500 g ai/ha, visual injury approx. 10 d
# Excerpt: as §1, §2
# [15] = tested on: pigweed (Amaranthus retroflexus); assay: Test A preemergence; conditions: for Plant response rating, Pigweed: 125 g ai/ha; for Pigweed plant response rating (0 to 100 scale, 0 is no effect, 100 is complete control): 500 g ai/ha, visual injury approx. 10 d
# Excerpt: as §1, §2
# [16] = 125 g ai/ha, postemergence, visual injury rating on 0 to 100 scale (0 no effect, 100 complete control), approx. 10 d
# [17] = 500 g ai/ha, postemergence, 0 to 100 scale, 0 no effect, 100 complete control
# [18] = preemergence, 0 to 100 scale (0 no effect, 100 complete control)
# [19] = 125 g ai/ha, postemergence, visual rating after approx. 10 d, 0 to 100 scale (0 no effect, 100 complete control)
# [20] = Postemergence, 500 g ai/ha, 0 to 100 scale where 0 is no effect and 100 is complete control
# [21] = Preemergence, visual injury after approximately 10 d, 0 to 100 scale where 0 is no effect and 100 is complete control
structure (smiles),measurement,setting,value
CC(=O)c1ccccc1NC(=O)C1C(=O)NCC1c1ccc(F)c(F)c1 (stereo not drawn) [Compound 418],Blackgrass plant response rating,[1]; [16],0
same,"Plant response rating, Blackgrass",[1]; [17],0
same,Barnyardgrass plant response rating,[2]; [16],0
same,"Plant response rating, Barnyardgrass",[2]; [17],0
same,Kochia plant response rating,Kochia (Kochia scoparia) [3]; [16],0
same,"Plant response rating, Kochia",Kochia (Kochia scoparia) [3]; [17],0
same,"Foxtail, Giant plant response rating",[4]; [16],0
same,"Plant response rating, Foxtail, Giant",[4]; [17],0
same,Ragweed plant response rating,[5]; [16],0
same,"Plant response rating, Ragweed",[5]; [17],0
same,Wheat plant response rating,[6]; [16],0
same,"Plant response rating, Wheat",[6]; [17],0
same,Corn plant response rating,corn (Zea mays); [16],0
same,"Plant response rating, Corn",corn (Zea mays); [17],0
same,"Ryegrass, Italian plant response rating",[7]; [16],0
same,"Plant response rating, Ryegrass, Italian",[7]; [17],0
same,Pigweed plant response rating,[8]; [16],0
same,"Plant response rating, Pigweed",[8]; [17],0
same,Galium plant response rating,[9]; [16],0
same,"Plant response rating, Galium",[9]; [17],0
same,"Plant response rating, Barnyardgrass",[10]; [18],0
same,"Barnyardgrass plant response rating (0 to 100 scale, 0 is no effect, 100 is complete control)",[10]; Preemergence,0
same,"Plant response rating, Kochia",Kochia (Kochia scoparia) [11]; [18],0
same,"Kochia plant response rating (0 to 100 scale, 0 is no effect, 100 is complete control)",Kochia (Kochia scoparia) [11]; Preemergence,0
same,"Plant response rating, Foxtail, Giant",[12]; [18],0
same,"Foxtail, Giant plant response rating (0 to 100 scale, 0 is no effect, 100 is complete control)",[12]; Preemergence,0
same,"Plant response rating, Ragweed",[13]; [18],0
same,"Ragweed plant response rating (0 to 100 scale, 0 is no effect, 100 is complete control)",[13]; Preemergence,0
same,"Plant response rating, Ryegrass, Italian",[14]; [18],0
same,"Ryegrass, Italian plant response rating (0 to 100 scale, 0 is no effect, 100 is complete control)",[14]; Preemergence,0
same,"Plant response rating, Pigweed",[15]; [18],0
same,"Pigweed plant response rating (0 to 100 scale, 0 is no effect, 100 is complete control)",[15]; Preemergence,0
CN1CC(c2ccc(Br)cc2)C(C(=O)Nc2cccc(F)c2F)C1=O (stereo not drawn) [Compound 564],"Plant response rating, Blackgrass",[1]; [19],40
same,"Plant response rating, Blackgrass",[1]; [20],70
same,"Plant response rating, Barnyardgrass",[2]; [19],90
same,"Plant response rating, Barnyardgrass",[2]; [20],90
same,"Plant response rating, Kochia",Kochia (Kochia scoparia) [3]; [19],80
same,"Plant response rating, Kochia",Kochia (Kochia scoparia) [3]; [20],80
same,"Plant response rating, Foxtail, Giant",[4]; [19],90
same,"Plant response rating, Foxtail, Giant",[4]; [20],90
same,"Plant response rating, Ragweed",[5]; [19],50
same,"Plant response rating, Ragweed",[5]; [20],60
same,"Plant response rating, Wheat",[6]; [19],40
same,"Plant response rating, Wheat",[6]; [20],60
same,"Plant response rating, Corn",corn (Zea mays); [19],70
same,"Plant response rating, Corn",corn (Zea mays); [20],80
same,"Plant response rating, Ryegrass, Italian",[7]; [19],60
same,"Plant response rating, Ryegrass, Italian",[7]; [20],70
same,"Plant response rating, Pigweed",[8]; [19],40
same,"Plant response rating, Pigweed",[8]; [20],70
same,"Plant response rating, Galium",[9]; [19],70
same,"Plant response rating, Galium",[9]; [20],70
same,"Plant response rating, Barnyardgrass",[10]; [21],90
same,"Barnyardgrass plant response rating (0 to 100 scale, 0 is no effect, 100 is complete control)",[10]; Preemergence,100
same,"Plant response rating, Kochia",Kochia (Kochia scoparia) [11]; [21],80
same,"Kochia plant response rating (0 to 100 scale, 0 is no effect, 100 is complete control)",Kochia (Kochia scoparia) [11]; Preemergence,90
same,"Plant response rating, Foxtail, Giant",[12]; [21],90
same,"Foxtail, Giant plant response rating (0 to 100 scale, 0 is no effect, 100 is complete control)",[12]; Preemergence,100
same,"Plant response rating, Ragweed",[13]; [21],80
same,"Ragweed plant response rating (0 to 100 scale, 0 is no effect, 100 is complete control)",[13]; Preemergence,90
same,"Plant response rating, Ryegrass, Italian",[14]; [21],40
same,"Ryegrass, Italian plant response rating (0 to 100 scale, 0 is no effect, 100 is complete control)",[14]; Preemergence,90
same,"Plant response rating, Pigweed",[15]; [21],90
same,"Pigweed plant response rating (0 to 100 scale, 0 is no effect, 100 is complete control)",[15]; Preemergence,90
Cc1ccc(C2CN(C)C(=O)C2C(=O)Nc2ccccc2F)c(F)c1 (stereo not drawn) [Compound 560],"Plant response rating, Blackgrass",[1]; [19],30
same,"Plant response rating, Blackgrass",[1]; [20],50
same,"Plant response rating, Barnyardgrass",[2]; [19],90
same,"Plant response rating, Barnyardgrass",[2]; [20],100
same,"Plant response rating, Kochia",Kochia (Kochia scoparia) [3]; [19],40
same,"Plant response rating, Kochia",Kochia (Kochia scoparia) [3]; [20],80
same,"Plant response rating, Foxtail, Giant",[4]; [19],90
same,"Plant response rating, Foxtail, Giant",[4]; [20],90
same,"Plant response rating, Ragweed",[5]; [19],0
same,"Plant response rating, Ragweed",[5]; [20],20
same,"Plant response rating, Wheat",[6]; [19],0
same,"Plant response rating, Wheat",[6]; [20],50
same,"Plant response rating, Corn",corn (Zea mays); [19],0
same,"Plant response rating, Corn",corn (Zea mays); [20],30
same,"Plant response rating, Ryegrass, Italian",[7]; [19],0
same,"Plant response rating, Ryegrass, Italian",[7]; [20],60
same,"Plant response rating, Pigweed",[8]; [19],0
same,"Plant response rating, Pigweed",[8]; [20],20
same,"Plant response rating, Galium",[9]; [19],40
same,"Plant response rating, Galium",[9]; [20],60
same,"Plant response rating, Barnyardgrass",[10]; [21],90
same,"Barnyardgrass plant response rating (0 to 100 scale, 0 is no effect, 100 is complete control)",[10]; Preemergence,100
same,"Plant response rating, Kochia",Kochia (Kochia scoparia) [11]; [21],60
same,"Kochia plant response rating (0 to 100 scale, 0 is no effect, 100 is complete control)",Kochia (Kochia scoparia) [11]; Preemergence,80
same,"Plant response rating, Foxtail, Giant",[12]; [21],100
same,"Foxtail, Giant plant response rating (0 to 100 scale, 0 is no effect, 100 is complete control)",[12]; Preemergence,100
same,"Plant response rating, Ragweed",[13]; [21],0
same,"Ragweed plant response rating (0 to 100 scale, 0 is no effect, 100 is complete control)",[13]; Preemergence,0
same,"Plant response rating, Ryegrass, Italian",[14]; [21],0
same,"Ryegrass, Italian plant response rating (0 to 100 scale, 0 is no effect, 100 is complete control)",[14]; Preemergence,70
same,"Plant response rating, Pigweed",[15]; [21],0
same,"Pigweed plant response rating (0 to 100 scale, 0 is no effect, 100 is complete control)",[15]; Preemergence,40
